{"source": "patent US11357749B2", "about": "“Methods for treating neutropenia” (Enzychem Lifesciences Corporation, priority 2014, dated 2022)", "key": {"Complement 3": {"tested_on": "Complement 3", "test": "Complement 3 activation by chemotherapeutic agents in mouse model", "format": "in vivo", "details": "mice, Gemcitabine, Cyclophosphamide or Tamoxifen plus PLAG", "method": "The effect of PLAG for treatment of neutropenia and thrombocytopenia induced by chemotherapy (CIN) is evaluated in an animal model. Anti-cancer agents (Gemcitabine 50 mg/kg, Cyclosphosphamide 100 mg/kg, or Tamoxifen 50 mg/kg) are dosed daily for 3 weeks; PLAG is also administered 50 mg/kg daily for 3 weeks. After three weeks, neutrophils are harvested and counted with Auto Hematology Analyzer BC-5300.\nIt is believed that the neutropenia and thrombocytopenia of these agents and other chemotherapeutic agents may be due at least in part to a specific complement-mediated toxicity. This is seen in FIG. 6."}, "monocytes": {"tested_on": "monocytes", "test": "Monocyte ratio in blood of LPS-treated C57BL/6 mice", "format": "in vivo", "details": "C57BL/6 mouse, LPS + PLAG, ratio to total leukocytes", "method": "To observe the ratio of neutrophil and lymphocyte in the blood of Balb/C mice, 1 mg/kg of lipopolysaccharide (LPS) is injected to mice, i.p. to induce inflammation. 5 mg/kg of PLAG is administered to the mice orally and blood samples are taken at 3 and 13 days after. In addition, for comparison, normal mice that are not treated with PLAG, receive PBS (phosphate buffered saline) and olive oil. The blood samples taken from the mice are treated with EDTA bottle 0.5 ml (Minocollect tube, Greiner bio-one, Austria) and the level of neutrophils (NEU) and lymphocytes (LYM) as a percentage of total leukocytes is measured using automated blood sample analyzer BC-6800 (Mindray, Shenzhen, China).\nExcept for using C57BL/6 mouse instead of Balb/C mouse, mice are treated in the same manner as Example 6, the monocyte ratio (Mono) to total leukocytes is measured and the results are shown in Table 5."}, "C3": {"tested_on": "C3", "test": "C3 expression (RT-PCR) in IL-4/TNF-α treated HMC-1 cells", "format": "cell-based, human", "details": "HMC-1 cells treated with IL-4 and TNF-α; PLAG 0.1 and 1 μg/mL", "method": "A blood cell line, HMC-1 (human mast cell, American Type Culture Collection, ATCC, Rockville, Md.) is incubated and maintained at 37° C. under 5% CO2 humid conditions. The medium is IMDM (Life Technologies, Karlsruhe, Germany) containing 10% Fetal Calf Serum (FCS, HyClone, Logan, Utah), 2 mM […], 100 μg/ml penicillin, 100 μg/ml streptomycin (Life Technologies). The cultured HMC-1 cells (1×10^6 cell/ml) are pre-treated with 0.1 and 1 μg/mL concentration of PLAG, followed by treating with IL-4 (5 ng) and/or TNF-α (10 ng) to induce cellular activities.\nThe expressed C3 and its mRNA level change are observed by using RT-PCR (Reverse Transcriptase Polymerase Chain Reaction). The RT-PCR is carried out as follows: the total RNA is separated by the standard protocol and cDNA is synthesized using AccuScript High Fidelity 1st Strand cDNA Synthesis Kit (Stratagene) by the manufacturer's instructions. Two-step RT-PCR reaction is conducted using Oligo-dT primer and reverse transcriptase, pair of primer and Taq polymerase (Takara, Shiga, Japan). […] The product of PCR is separated using 1.5% agarose gel, dyed with ethidium bromide (EtBr), and visualized with Gel Doc 2000 UV trans-illuminator (Bio-Rad Laboratories, Hercules, Calif., USA), and the experimental data is analyzed using Quantity One software (Bio-Rad Laboratories)."}, "bone marrow-derived HSC": {"tested_on": "bone marrow-derived HSC", "test": "In vitro colony formation in bone marrow-derived HSC", "format": "cell-based"}, "[1]": {"tested_on": "white blood cells and neutrophils", "test": "Cyclophosphamide-induced neutropenia in mice, G-CSF with or without PLAG", "format": "in vivo", "details": "PLAG 25 mpk p.o. added to G-CSF 0.25 mpk i.p., cyclophosphamide-treated mice", "from_the_text": "Mice receive cyclophosphamide (100 mpk, i.p.) for a period of ten days, with or without G-CSF (0.25 mpk, i.p.) or G-CSF (0.25 mpk, i.p.) plus PLAG (25 mpk, p.o.): […]"}, "platelets": {"tested_on": "platelets", "test": "Tamoxifen-induced platelet reduction in mice", "format": "in vivo", "details": "Tam 100 mg/kg + PLAG 5 mg/kg, after 15 hours", "method": "Mice are injected with 100 mg/kg phenylhydrazine (PHZ), i.p., to induce anemia and reduction of platelets. 5 mg/kg PLAG is administered to the mice orally and blood samples are taken at 3 and 13 days after. In addition, for comparison, normal mice which are not treated with phenylhydrazine are prepared as a normal group, and mice treated with PHZ and olive oil instead of PLAG are prepared as a control group. The blood samples taken from the mice are treated with 0.5 ml EDTA (Minicollect tube, Greiner bio-one, Austria) and concentration of platelet is measured using automated blood sample analyzer BC-6800 (Mindray, Shenzhen, China) by number of platelet per […] (k: 1,000).\nThe experiment is repeated using Tamoxifen (Tam), an anticancer agent, injected at the amount of 100 mg/kg, or lipopolysaccharide (LPS), an inflammation inducer, at the amount of 1 mg/kg to induce platelet reduction. Platelet concentration is measured 15 hours after PLAG treatment. For comparison, olive oil and PBS are used instead of PLAG as controls, respectively for the Tamoxifen and lipopolysaccharide experiment."}, "ERK1/2": {"tested_on": "ERK1/2", "test": "ERK1/2 phosphorylation, western blot in IgE-antigen stimulated RBL-2H3 cells", "format": "cell-based", "details": "PLAG pre-incubated RBL-2H3 cells, IgE-antigen complex stimulation", "method": "Dephosphorylation of p38 MAPK and ERK1/2 in PLAG-treated RBL-2H3 cells is determined by western blot analysis using anti-phospho-p38 and anti-phospho-ERK1/2 respectively. To activate the p38 and ERK1/2 in RBL-2H3 cells, the cells are sensitized with 50 ng/mL of anti-DNP-IgE overnight. After washing with PBS three times, 20 ng/ml of DNP-HSA is added. Each cell lysate for western blot is prepared in the PLAG-treated RBL-2H3 cells in a dose-dependent manner and incubated for the same time (15 min). β-actin is used as internal controls. ERK1/2 and p38 phosphorylation start immediately after IgE-antigen complex stimulation and remain sufficiently activated for 5 min."}}, "data": [{"smiles": "CCCCC/C=C\\C/C=C\\CCCCCCCC(=O)OC(COC(C)=O)COC(=O)CCCCCCCCCCCCCCC", "note": "(racemic) [PLAG, 1-palmitoyl-2-linoleoyl-3-acetylglycerol]", "values": [{"measurement": "Complement 3 activation by chemotherapeutic agents", "setting": "Complement 3", "value": "largely blocked"}, {"measurement": "Monocyte ratio", "setting": "monocytes", "value": "18.4 ± 6.6", "unit": "%"}, {"measurement": "expression of C3", "setting": "C3", "value": "suppressed by PLAG on a concentration dependent basis"}, {"measurement": "colony formation", "setting": "bone marrow-derived HSC", "value": "increased colony formation"}, {"measurement": "increase of WBC over G-CSF alone", "setting": "[1]", "value": "more than 60%"}, {"measurement": "increase of neutrophils over G-CSF alone", "setting": "[1]", "value": "more than 70%"}, {"measurement": "Platelet Conc.", "setting": "platelets", "value": "780.7 ± 195.9", "unit": "k/ul"}, {"measurement": "ERK1/2 phosphorylation", "setting": "ERK1/2", "value": "down-regulated"}]}]}
